Test results published in patent US8987486B2, “Trans-2-decenoic acid derivative and pharmaceutical agent containing the same” (Nagoya Industrial Science Research Institute, priority 2010, dated 2015).

Assays:
[1] = system: MAP kinase; test: Activation (phosphorylation) of MAP kinase by Western immunoblotting in cultured cerebral cortex nerve cells; type: cell-based, rat; parameters: pMAPK/MAPK: unit not given here; details: for Ratio of pMAPK to MAPK: Test Example 6, relative to control (0 μg/mL = 1.0)
Experimental: With regard to the compound 1 ((E)-2-(dimethylamino)-ethyl dec-2-enoate), activation of MAP kinase was measured as follows by a Western immunoblotting.
Nerve cells were dispersed from cerebral cortex of a fetal rat of 17 days age and said nerve cells were cultured for one day in a Dulbecco-modified Eagle medium (DMEM) containing 5% fetal bovine serum. The culture medium was exchanged with a serum-free medium (B27 supplement-added Neurobasal; Invitrogen) and the nerve cells were cultured at the density of 20,000 to 40,000 cells per cm^2 in a culture dish coated with polyornithine.
After three days, the compound 1 was added and the culture was continued for 30 minutes. After that, the cells were recovered on ice using a solution containing a phosphatase inhibitor where Tris-HCl buffer was a base. Protein concentration of the resulting cell extract was quantified using a BCA Protein Assay Kit (Takara Bio KK) and a certine amount of protein (3 μg for the measurement of MAP kinase and 5 μg for the measurement of phosphorylated MAP kinase) was subjected to polyacrylamide gel electrophoresis. The protein was transcribed from the gel after the electrophoresis to a PVDF membrane and a Western immunoblotting was carried out using each of an anti-MAP kinase antibody (Cell Signaling Technology) and an anti-phosphorylated MAP kinase antibody (Cell Signaling Technology) of the primary antibody.
After that, the reaction with an alkaline phosphatase-labeled anti-rabbit IgG antibody (Promega) of the secondary antibody was carried out so that the enzymatic activity was colorized whereupon the MAP kinase and the phosphorylated MAP kinase were measured.
Incidentally, the compound 1 was adjusted to the concentrations of 10 μg/ml, 30 μg/ml, 100 μg/ml and 300 μg/ml by dissolving in 0.1% DMSO. With regard to the control, 0.1% DMSO was added.
Intensity of the concentration of the above-obtained band of the gel subjected to electrophoresis was calculated and quantified using Image J (K. K. Bioarts). The numerical value for the MAP kinase using the compound 1 was divided by the numerical value for the MAP kinase of the control and, further, the numerical value for the phosphorylated MAP kinase using the compound 1 was divided by the numerical value for the phosphorylated MAP kinase of the control whereupon the ratio of the MAP kinase using the compound 1 to the control and the ratio of the phosphorylated kinase using the compound 1 to the control were determined.
After that, the resulting ratio of the phosphorylated MAP kinase to the control was divided by the resulting ratio of the MAP kinase to the control to determine the ratio of the phosphorylated MAP kinase to the MAP kinase (cf. Table 5). In Table 5, “MAPK” means a MAP kinase and “pMAPK” means a phosphorylated MAP kinase. “10”, “30”, “100” and “300” in Table 5 show the examples where 10 μg/ml, 30 μg/ml, 100 μg/ml and 300 μg/ml of the compound 1 were added.
MAP kinase and phosphorylated MAP kinase were measured for the compound 6 ((E)-2-(diethylamino)ethyl dec-2-enoate) and the compound 13 ((E)-2-(2-(diethylamino)ethoxy)ethyl dec-2-enoate) by the same method as in Test Example 1.
Each of the compounds 6 and 13 was dissolved in 0.1% DMSO to adjust to the concentration of 250 μg/ml. With regard to the control, 0.1% DMSO was added. With regard to the concentration of the resulting band of the gel subjected to electrophoresis, its intensity was calculated by the same method as in Test Example 1 using Image J (K. K. Bioarts) and the ratio of the phosphorylated MAP kinase to the control was divided by the resulting ratio of the MAP kinase to the control whereupon the ratio of the phosphorylated MAP kinase to the MAP kinase was determined (cf. Table 6).
With regard to the compound of the present invention, its activation for MAP kinase was measured by the same manner as in Test Example 1.
Each compound was dissolved in 0.1% DMSO to adjust to the concentrations of 30 μg/ml, 60 μg/ml, 125 μg/ml and 250 μg/ml. […]

[2] = system: paclitaxel-induced peripheral nerve disorder rats; test: von Frey test in paclitaxel-induced peripheral nerve disorder rats; type: in vivo; details: Rattus norvegicus, ip; single intraperitoneal dose of 300 μ/kg; higher of the thresholds after 1 hour and 5 hours; normal threshold 15; read-out: Recovery rate of 50% reaction threshold value (%)
Experimental: The effect of the compound of the present invention was tested for a peripheral nerve disorder which is a side effect induced by the administration of paclitaxel (an anti-cancer agent) such as hyperesthesia including allodynia (severe pain induced by such tactile stimuli which usually cause no pain). The compound of the present invention was intraperitoneally administered to rats as a test drug to conduct a von Frey test.
Male SD rats of six weeks age (one group comprising six rats) were used as experimental animals and paclitaxel (2 mg/kg) was intraperitoneally administered every other day for four times in total to prepare paclitaxel-induced peripheral nerve disorder rats. During 18 and 25 days or during 20 to 27 days after initiation of paclitaxel administration, the test drug was intraperitoneally administered in a single dose of […] and the following von Frey test was conducted.
The rats of the above (1) were placed in a transparent acrylic cage with a wire-meshed floor and habituated for about three minutes and the 50% reaction threshold values to the mechanical stimulus of right hind limb were measured before administration of the test drug and after 1, 5 and 24 hours from initiation of the administration.
The measurement was conducted using von Frey filaments (manufactured by North Coast Medical Inc.) in accordance with the methods of Chaplan, et al. (Journal of Neuroscience Methods, vol. 53, no. 1, pages 55 to 63, 1994) and Dixon, et al. (Annual Review of Pharmacology and Toxicology, vol. 20, pages 441 to 462, 1980). […] The case where the rat escaped at the instance of removing the filament was also called positive. When the positive reaction was noted, stimulus was conducted similarly using a filament of one rank weaker while, when no reaction was noted, stimulus was conducted similarly using a filament of one rank stronger and the point when the reaction changed from negative to positive or from positive to negative was called the first two reactions. After that, stimulus was conducted for continuous four times by the same up-down method. A 50% reaction threshold value to the mechanical stimulus was measured using the reaction to the six stimuli in total and then (mean value)±(standard error) for each group was calculated. Incidentally, when stimulus reached by that of 15.0 g without positive reaction or, when positive reaction continued to 0.4 g, then 15.0 g or 0.25 g was adopted as each threshold value, respectively. With regard to the higher 50% reaction threshold value between the 50% threshold values after 1 hour and 5 hours from administration of a test drug, a recovery rate (%) of the 50% reaction threshold value was calculated by the following expression in which 15 was adopted as the normal threshold value. Recovery rate (%) of 50% reaction threshold value=[(50% reaction threshold value after 1 hour or 5 hours from administration of test drug)−(50% reaction threshold value before administration of test drug)]/[(Normal threshold value)−(50% reaction threshold value before administration of test drug)]

[3] = 10 μg/ml, 30 minutes, fetal rat cerebral cortex nerve cells
[4] = 30 μg/ml, 30 minutes, fetal rat cerebral cortex nerve cells
[5] = 100 μg/ml, 30 minutes, fetal rat cerebral cortex nerve cells

SMILES: CCCCCCC/C=C/C(=O)OCCN(C)C [Compound 1, (E)-2-(dimethylamino)ethyl dec-2-enoate]
- pMAPK/MAPK [1, 3]: 674
- pMAPK/MAPK/Control [1, 3]: 1.38
- pMAPK/MAPK [1, 4]: 1071
- pMAPK/MAPK/Control [1, 4]: 2.20
- pMAPK/MAPK [1, 5]: 1043
- pMAPK/MAPK/Control [1, 5]: 2.14
- pMAPK/MAPK ([1]; 300 μg/ml, 30 minutes, fetal rat cerebral cortex nerve cells): 2234
- inhibition in vivo at 0.3 mg/kg [2]: 48.3%

SMILES: CCCCCCC/C=C/C(=O)OCCN(CC)CC [Compound 6, (E)-2-(diethylamino)ethyl dec-2-enoate]
- pMAPK/MAPK/Control ([1]; 250 μg/ml, Test Example 2, control = 1.00): 1.72

SMILES: CCCCCCC/C=C/C(=O)NCCN(C)C [Compound 36, (E)-N-2-(dimethylamino)ethyl dec-2-enamide]
- Ratio of pMAPK to MAPK ([1]; 30 μg/mL): 1.6
- Ratio of pMAPK to MAPK ([1]; 60 μg/mL): 5.1
- Ratio of pMAPK to MAPK ([1]; 125 μg/mL): 0.5
- inhibition in vivo at 0.3 mg/kg [2]: 72.1%

SMILES: CCCCCCC/C=C/C(=O)NCCN(CC)CC [Compound 37, (E)-N-2-(diethylamino)ethyl dec-2-enamide]
- Ratio of pMAPK to MAPK ([1]; 60 μg/mL): 3.4
- Ratio of pMAPK to MAPK ([1]; 125 μg/mL): 3.4
- Ratio of pMAPK to MAPK ([1]; 250 μg/mL): 4.9
- inhibition in vivo at 0.3 mg/kg [2]: 73.1%

SMILES: CCCCCCC/C=C/C(=O)SCCN(C)C [Compound 55, (E)-S-2-(dimethylamino)ethyl dec-2-enethioate]
- Ratio of pMAPK to MAPK ([1]; 30 μg/mL): 4.6
- Ratio of pMAPK to MAPK ([1]; 60 μg/mL): 8.6
- Ratio of pMAPK to MAPK ([1]; 125 μg/mL): 16.0
- inhibition in vivo at 0.3 mg/kg [2]: 45.4%
